Laboratory results from ChEMBL document CHEMBL6103591, “Discovery of naphthoquinone-furo-piperidone derivatives as dual targeting agents of STAT3 and NQO1 for the treatment of breast cancer” (Eur J Med Chem, 2025).

Columns and labels:
MDA-MB-468 [1] = experiment: Induction of apoptosis in human MDA-MB-468 cells assessed as late apoptotic cells at 3 uM measured after 24 hrs by Annexin V/propidium iodide (PI) double staining based flow cytometric analysis (reference value: 2.12 %); format: functional
MDA-MB-231 [2] = experiment: Induction of apoptosis in human MDA-MB-231 cells assessed as late apoptotic cells at 3 uM measured after 24 hrs in presence of Z-VAD-FMK by Annexin V/propidium iodide (PI) double staining based flow cytometric analysis (reference value: 1.84 %); format: functional
MDA-MB-231 [3] = experiment: Induction of apoptosis in human MDA-MB-231 cells assessed as early apoptotic cells at 3 uM measured after 24 hrs by Annexin V/propidium iodide (PI) double staining based flow cytometric analysis (reference value: 1.98 %); format: functional
MDA-MB-231 [4] = experiment: Induction of apoptosis in human MDA-MB-231 cells assessed as early apoptotic cells at 3 uM measured after 24 hrs in presence of Z-VAD-FMK by Annexin V/propidium iodide (PI) double staining based flow cytometric analysis (reference value: 1.99 %); format: functional
MDA-MB-468 [5] = experiment: Induction of apoptosis in human MDA-MB-468 cells assessed as late apoptotic cells at 1.5 uM measured after 24 hrs by Annexin V/propidium iodide (PI) double staining based flow cytometric analysis (reference value: 2.24 %); format: functional
MDA-MB-231 [6] = experiment: Induction of apoptosis in human MDA-MB-231 cells assessed as early apoptotic cells at 3 uM measured after 24 hrs by Annexin V/propidium iodide (PI) double staining based flow cytometric analysis (reference value: 1.99 %); format: functional
MDA-MB-468 [7] = experiment: Induction of apoptosis in human MDA-MB-468 cells assessed as early apoptotic cells at 3 uM measured after 24 hrs by Annexin V/propidium iodide (PI) double staining based flow cytometric analysis (reference value: 2.94 %); format: functional
MDA-MB-468 [8] = experiment: Induction of apoptosis in human MDA-MB-468 cells assessed as early apoptotic cells at 1.5 uM measured after 24 hrs by Annexin V/propidium iodide (PI) double staining based flow cytometric analysis (reference value: 2.94 %); format: functional
[9] = Cytotoxicity against human MCF-10A cells; format: toxicity, cell-based
MDA-MB-231 [10] = experiment: Induction of apoptosis in human MDA-MB-231 cells assessed as early apoptotic cells at 1.5 uM measured after 24 hrs by Annexin V/propidium iodide (PI) double staining based flow cytometric analysis (reference value: 1.98 %); format: functional
[11] = Selectivity ratio of IC50 for cytotoxicity against human MCF-10A cells to IC50 for antiproliferative activity against human MDA-MB-231 cells; format: toxicity, cell-based; conditions: MCF-10A cells versus MDA-MB-231 cells, read-out: Ratio IC50
MCF7 = experiment: Antiproliferative activity against human MCF7 cells incubated for 48 hrs by MTT assay; format: functional, cell-based; conditions: MCF7, 48 h
MDA-MB-231 [12] = experiment: Induction of apoptosis in human MDA-MB-231 cells assessed as late apoptotic cells at 1.5 uM measured after 24 hrs by Annexin V/propidium iodide (PI) double staining based flow cytometric analysis (reference value: 2.22 %); format: functional
MDA-MB-231 [13] = experiment: Induction of apoptosis in human MDA-MB-231 cells assessed as late apoptotic cells at 3 uM measured after 24 hrs by Annexin V/propidium iodide (PI) double staining based flow cytometric analysis (reference value: 2.22 %); format: functional
MDA-MB-231 [14] = experiment: Induction of apoptosis in human MDA-MB-231 cells assessed as late apoptotic cells at 3 uM measured after 24 hrs by Annexin V/propidium iodide (PI) double staining based flow cytometric analysis (reference value: 1.84 %); format: functional
[15] = target: Signal transducer and activator of transcription 3 (Homo sapiens, UniProt P40763); experiment: Inhibition of STAT3 (unknown origin) activation transfected in HEK293 preincubated for 30 mins followed by IL-6 addition and measured after 24 hrs by luciferase reporter gene assay; format: cell-based
Sequence of Signal transducer and activator of transcription 3 (P40763 whole entry): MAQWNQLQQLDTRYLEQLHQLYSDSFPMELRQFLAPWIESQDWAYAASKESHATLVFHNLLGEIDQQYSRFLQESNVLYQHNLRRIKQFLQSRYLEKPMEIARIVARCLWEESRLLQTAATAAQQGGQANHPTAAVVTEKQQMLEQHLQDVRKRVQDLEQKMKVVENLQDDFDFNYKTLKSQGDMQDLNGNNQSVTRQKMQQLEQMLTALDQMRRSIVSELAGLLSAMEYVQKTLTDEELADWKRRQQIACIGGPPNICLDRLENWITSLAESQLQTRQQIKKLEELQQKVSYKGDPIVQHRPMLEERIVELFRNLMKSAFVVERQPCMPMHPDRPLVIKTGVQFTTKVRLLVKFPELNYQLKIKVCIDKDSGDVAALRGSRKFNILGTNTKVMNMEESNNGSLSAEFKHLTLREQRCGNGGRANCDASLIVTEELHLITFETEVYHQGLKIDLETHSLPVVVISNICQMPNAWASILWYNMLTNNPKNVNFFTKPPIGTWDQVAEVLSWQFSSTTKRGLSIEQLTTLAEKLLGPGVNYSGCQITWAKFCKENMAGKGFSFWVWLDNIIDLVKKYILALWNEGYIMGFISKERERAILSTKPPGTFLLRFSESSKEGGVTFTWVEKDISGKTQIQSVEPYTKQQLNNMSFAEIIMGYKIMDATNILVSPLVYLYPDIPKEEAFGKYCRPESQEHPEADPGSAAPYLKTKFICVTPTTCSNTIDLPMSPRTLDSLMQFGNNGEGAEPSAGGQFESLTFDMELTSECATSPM

MDA-MB-468 [16] = experiment: Induction of apoptosis in human MDA-MB-468 cells assessed as early apoptotic cells at 3 uM measured after 24 hrs in presence of Z-VAD-FMK by Annexin V/propidium iodide (PI) double staining based flow cytometric analysis (reference value: 4.97 %); format: functional
MDA-MB-231 [17] = experiment: Antiproliferative activity against human MDA-MB-231 cells assessed as reduction in cell viability incubated for 48 hrs by MTT assay; format: functional, cell-based; conditions: MDA-MB-231, 48 h
MDA-MB-468 [18] = experiment: Induction of apoptosis in human MDA-MB-468 cells assessed as late apoptotic cells at 3 uM measured after 24 hrs in presence of Z-VAD-FMK by Annexin V/propidium iodide (PI) double staining based flow cytometric analysis (reference value: 2.12 %); format: functional
MDA-MB-468 [19] = experiment: Induction of apoptosis in human MDA-MB-468 cells assessed as early apoptotic cells at 3 uM measured after 24 hrs by Annexin V/propidium iodide (PI) double staining based flow cytometric analysis (reference value: 4.97 %); format: functional
MDA-MB-468 [20] = experiment: Antiproliferative activity against human MDA-MB-468 cells assessed as reduction in cell viability incubated for 48 hrs by MTT assay; format: functional, cell-based; conditions: MDA-MB-468, 48 h
MDA-MB-468 [21] = experiment: Induction of apoptosis in human MDA-MB-468 cells assessed as late apoptotic cells at 3 uM measured after 24 hrs by Annexin V/propidium iodide (PI) double staining based flow cytometric analysis (reference value: 2.24 %); format: functional

SMILES: O=C1C(=O)c2c(oc3c2CCN(CCN2CCCCC2)C3=O)-c2ccccc21
- Activity (MDA-MB-468 [1]): 52.62%
- Activity (MDA-MB-231 [2]): 13.99%
- Activity (MDA-MB-231 [3]): 2.94%
- Activity (MDA-MB-231 [4]): 4.67%
- Activity (MDA-MB-468 [5]): 4.07%
- Activity (MDA-MB-231 [6]): 8.01%
- Activity (MDA-MB-468 [7]): 14.73%
- Activity (MDA-MB-468 [8]): 7.36%
- IC50 [9]: 3330 nM
- Activity (MDA-MB-231 [10]): 2.31%
- selectivity ratio [11]: ~6
- IC50 (MCF7): 1050 nM
- Activity (MDA-MB-231 [12]): 5.26%
- Activity (MDA-MB-231 [13]): 25.08%
- Activity (MDA-MB-231 [14]): 27.43%
- IC50 [15]: 400 nM
- Activity (MDA-MB-468 [16]): 9.18%
- IC50 (MDA-MB-231 [17]): 520 nM
- Activity (MDA-MB-468 [18]): 8.47%
- Activity (MDA-MB-468 [19]): 17.75%
- IC50 (MDA-MB-468 [20]): 1480 nM
- Activity (MDA-MB-468 [21]): 37.57%
